Consider 5 compounds from patent publication US10906884B2, “Benzodiazepine derivatives as CCK2/gastrin receptor antagonists” (Trio Medicines Ltd, priority 2014, dated 2021).

The nature of data set [1]: Aqueous solubility study in Britton-Robinson's buffer (HPLC-UV). Format: physicochemical. As to conditions: ambient temperature overnight; for solubility: thermodynamic from solid. As for the experimental part:
The test compound (2.5 mg of solid; n=1) was weighed in a clear glass vial and Britton-Robinson's buffer (0.5 mL) was added (pH 2.01, pH 3.06, pH 4.06, pH 5.08, pH 5.99, pH 6.98, and pH 8.16). The solution was agitated at ambient temperature overnight using a vial roller system, and then filtered (0.45 μm pore size; without pre-saturation). Two aliquots (50 μL) were sampled from the filtrate and diluted with one volume of 0.1 N hydrochloric acid and methanol (1:1 v/v) before analysis by HPLC-UV. A standard was prepared in DMSO at 10 mg/mL (n=1) which was then diluted 10-fold in 0.1 N hydrochloric acid and methanol (1:1 v/v) to give a 1 mg/mL solution. The concentration of test compound in the filtrate was quantified relative to the concentration standard.
Analysis was done using a gradient HPLC-UV system with a total cycle time of 6 min. The UV detection between 220 nm and 300 nm was done using a photodiode array detector.
The values given in the table above are for crystalline YF476 and (TR2-A) and amorphous (TR1).

Data set [2] is described as follows: Pharmacokinetics in healthy subjects, single oral dose, API in capsule. As to conditions: human, in vivo; after single oral doses of (TR2-A); analyte TR2-A; read-out: AUC0-24 h of plasma concentrations of (TR2-A). How it is done:
In an initial study, healthy volunteers took a single oral dose of 100 mg (TR2) as an active pharmaceutical ingredient (API) in a capsule. Plasma concentrations were measured.
In further clinical studies, healthy volunteers (n=8) took single oral doses of 5, 15, 50 and 100 mg (TR2) as an active pharmaceutical ingredient (API) in a capsule. (Capsule formulation TR2 powder (API) in a hard gelatin capsule, no excipients, no processing). Plasma concentrations were measured.
Healthy volunteers (n=8) took single oral doses of 5, 15, 25 and 50 mg (TR2-A) as API in a capsule (TR2-A (crystalline) in hard gelatin capsule with no excipient, no processing of the API). Plasma concentrations of (TR2) and (TR2-A) were measured. The area under the curve of plasma concentrations of (TR2) after a single oral dose of 50 mg of (TR2-A) API (AUC0-24 h=212.5) was about the same as that observed for a similar formulation of a single oral dose of (TR2) 100 mg (AUC0-24 h=241.5).

The next data set has as its target T1, CCK2 (human) (Homo sapiens, UniProt P32239).
T1 sequence (P32239 1-447): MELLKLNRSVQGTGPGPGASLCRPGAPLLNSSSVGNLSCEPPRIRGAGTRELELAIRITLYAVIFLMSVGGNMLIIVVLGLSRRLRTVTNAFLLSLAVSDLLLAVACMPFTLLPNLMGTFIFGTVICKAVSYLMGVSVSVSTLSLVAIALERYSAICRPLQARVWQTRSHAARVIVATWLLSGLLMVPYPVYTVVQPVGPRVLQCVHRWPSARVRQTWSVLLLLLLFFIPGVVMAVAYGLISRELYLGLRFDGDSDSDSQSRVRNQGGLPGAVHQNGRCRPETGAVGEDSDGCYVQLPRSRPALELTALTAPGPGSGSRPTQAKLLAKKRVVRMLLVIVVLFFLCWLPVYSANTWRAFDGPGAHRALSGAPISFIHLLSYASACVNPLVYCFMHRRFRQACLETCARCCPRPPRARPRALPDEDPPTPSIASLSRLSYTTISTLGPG
Nature of the data set: CCK2 receptor functional assay (antagonist effect, cAMP, HTRF). The format is cell-based. Also noted: expressed in transfected cells; host or cells: CHO cells. From the text: (TR2) and (TR3) were compared with YF476 and YM022 in CCK1 and CCK2 receptor functional assays with the following assay criteria.
The potency of the antagonists is expressed as IC50, the concentration of antagonist that causes a half-maximum inhibition of the control agonist response. The affinity of the antagonist for the receptor is expressed as KB, the concentration of antagonist, which would occupy 50% of the receptors at equilibrium.
(Time-resolved FRET reads energy transfer from a long-lived donor to a nearby acceptor.)

In a further data set the target is T2, rat brain CCK2 receptors (Rattus norvegicus, UniProt P30553).
T2 construct: host or cells: rat brain
T2 sequence (P30553 1-452): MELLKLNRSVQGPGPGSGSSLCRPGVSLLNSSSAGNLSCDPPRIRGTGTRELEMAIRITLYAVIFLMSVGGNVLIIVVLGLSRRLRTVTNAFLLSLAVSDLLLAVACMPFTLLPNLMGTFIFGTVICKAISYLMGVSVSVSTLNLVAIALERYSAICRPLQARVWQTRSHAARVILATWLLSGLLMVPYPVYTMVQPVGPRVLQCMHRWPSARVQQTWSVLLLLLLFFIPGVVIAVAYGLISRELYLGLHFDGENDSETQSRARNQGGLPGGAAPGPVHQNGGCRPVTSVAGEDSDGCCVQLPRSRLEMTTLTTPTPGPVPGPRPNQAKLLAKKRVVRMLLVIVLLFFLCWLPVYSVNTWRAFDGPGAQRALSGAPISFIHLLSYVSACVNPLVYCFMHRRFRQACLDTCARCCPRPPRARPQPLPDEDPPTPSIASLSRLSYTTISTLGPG
As to conditions: cited from earlier work.

For data set [3] the following is noted: cited from earlier work.
The test system of data set [4] is AGSGR cells (gastric adenocarcinoma cell line transfected with human gastrin/CCK2 receptor gene). Nature of the data set: Sulphorhodamine-B (SRB) proliferation assay, G17-treated cells. Format: cell-based. The conditions noted are these: compound 100 nM, G17 10 nM. How it is done: The potency of (TR2) and (TR3) was tested in a sulphorhodamine-B (SRB) proliferation assay in a human gastric adenocarcinoma cell line stably transfected with the human gastrin/CCK2 receptor gene (AGSGR). SRB is a fluorescent dye that binds to proteins, so cells with a high rate of protein synthesis (proliferative cells) will show high levels of fluorescence in the SRB assay. […] (TR2) and (TR3) were compared with the positive controls YF476 and YM022.
In general terms: Sulforhodamine B stains cellular protein and so reports cell mass.

Setting [5] is: pH 2.01, Britton-Robinson's buffer.
The mark [6] stands for this setting: pH 3.06, Britton-Robinson's buffer.
Where [7] appears, read: pH 4.06, Britton-Robinson's buffer.
Setting [8] is: pH 5.08, Britton-Robinson's buffer.
[9] abbreviates: pH 5.99, Britton-Robinson's buffer.
The mark [10] stands for this setting: pH 6.98, Britton-Robinson's buffer.
[11] abbreviates: pH 8.16, Britton-Robinson's buffer.

The structures appear in SMILES notation. In brackets after ≈: the same amount, converted by molar mass. Like-named read-outs stand apart in the source and are kept apart here.

Consider `CNc1cccc(NC(=O)N[C@@H]2N=C(c3ccccn3)c3ccccc3N(CC(=O)C(C)(C)COC(C)=O)C2=O)c1` [TR2-A amorphous], for which the Aqueous solubility (as a rule, the dissolved amount per volume that the medium holds) worked out at 5000 µg/mL in data set [1] (setting [5]); 683 µg/mL in data set [1] (setting [6]); 282 µg/mL in data set [1] (setting [7]); 128 µg/mL in data set [1] (setting [8]); 53.4 µg/mL in data set [1] (setting [9]); 43 µg/mL in data set [1] (setting [10]). Moreover, the Aqueous solubility in data set [1] (setting [11]) was determined as 40.2 µg/mL.
For `CNc1cccc(NC(=O)N[C@@H]2N=C(c3ccccn3)c3ccccc3N(CC(=O)C(C)(C)COC(C)=O)C2=O)c1` [TR2-A, (R)-1-[1-(4-Acetoxy-3,3-dimethyl-2-oxo-butyl)-2-oxo-5-pyridin-2-yl-2,3-dihydro-1H-benzo[e][1,4]diazepin-3-yl]-3-(3-methylamino-phenyl)-urea], the solubility – broadly, how much of the substance goes into solution per volume – worked out at 4190 µg/mL (≈ 7530 µM) in data set [1] (pH 2.01, aqueous buffer, pH 2.01, Britton-Robinson's buffer); 730 µg/mL (≈ 1310 µM) in data set [1] (pH 3.06, aqueous buffer, pH 3.06, Britton-Robinson's buffer); 218 µg/mL (≈ 392 µM) in data set [1] (pH 4.06, aqueous buffer, pH 4.06, Britton-Robinson's buffer); 47.2 µg/mL (≈ 84.8 µM) in data set [1] (pH 5.99, aqueous buffer, pH 5.99, Britton-Robinson's buffer); 51 µg/mL (≈ 91.6 µM) in data set [1] (pH 6.98, aqueous buffer, pH 6.98, Britton-Robinson's buffer); 45.4 µg/mL (≈ 81.6 µM) in data set [1] (pH 8.16, aqueous buffer, pH 8.16, Britton-Robinson's buffer). Also, the Aqueous solubility in data set [1] (setting [8]) came to 56 µg/mL. Besides, in data set [2], the AUC(0-t) was under 10 ng·h/mL.
For the compound `Cc1cccc(NC(=O)N[C@@H]2N=C(c3ccccc3)c3ccccc3N(CC(=O)c3ccccc3C)C2=O)c1` [YM022, reference compound], at CCK2 (human), half-maximal inhibition (IC50) required 0.55 nM and the Kb (usually the equilibrium dissociation constant of an antagonist, usually derived from a functional assay) is 0.68 nM. Moreover, on rat brain CCK2 receptors, the “Affinity at rat brain CCK2 receptors” value is “subnanomolar” and the “Affinity at rat brain CCK2 receptors relative to rat pancreatic CCK1 receptors” value is given as “more than two orders of magnitude higher”. Besides, in data set [3], the Aqueous solubility result is reported as “low”. The “Inhibition of the anti-proliferative effects of G17” value in data set [4] is “completely inhibited”.
As to `CNc1cccc(NC(=O)NC2N=C(c3ccccn3)c3ccccc3N(CC(=O)C(C)(C)CO)C2=O)c1` (racemic) [TR1, 1-[1-(4-Hydroxy-3,3-dimethyl-2-oxo-butyl)-2-oxo-5-pyridin-2-yl-2,3-dihydro-1H-1,4-benzodiazepin-3-yl]-3-(3-methylamino-phenyl)-urea], the solubility was found to be 5000 µg/mL (≈ 9720 µM) in data set [1] (aqueous buffer, pH 2.01, Britton-Robinson's buffer); 645 µg/mL (≈ 1250 µM) in data set [1] (aqueous buffer, pH 3.06, Britton-Robinson's buffer); 58.2 µg/mL (≈ 113 µM) in data set [1] (aqueous buffer, pH 4.06, Britton-Robinson's buffer); 9.8 µg/mL (≈ 19 µM) in data set [1] (aqueous buffer, pH 5.08, Britton-Robinson's buffer); 11.6 µg/mL (≈ 22.5 µM) in data set [1] (aqueous buffer, pH 5.99, Britton-Robinson's buffer); 5.84 µg/mL (≈ 11.3 µM) in data set [1] (aqueous buffer, pH 6.98, Britton-Robinson's buffer). Moreover, the solubility in data set [1] (aqueous buffer, pH 8.16, Britton-Robinson's buffer) came out at 7.81 µg/mL (≈ 15.2 µM).
For the compound `CNc1cccc(NC(=O)N[C@@H]2N=C(c3ccccn3)c3ccccc3N(CC(=O)C(C)(C)COC(C)=O)C2=O)c1` [TR2-A crystalline], the Aqueous solubility in data set [1] (setting [5]) was 4190 µg/mL; in data set [1] (setting [6]) it was 730 µg/mL; in data set [1] (setting [7]), 218 µg/mL; in data set [1] (setting [8]), 56 µg/mL; in data set [1] (setting [9]), 47.2 µg/mL; in data set [1] (setting [10]) it was 51 µg/mL. This compound had an Aqueous solubility in data set [1] (setting [11]) of 45.4 µg/mL.
